Laboratory results taken from US6663846B1, “Devices and methods for monitoring drug therapy compliance” (priority 1998, dated 2003).

Columns and labels:
[1] = humans; cited from earlier work
[2] = Emission spectra, front-face illumination, excitation at 600 nm; assay type: physicochemical; details: for emission peak: in 0.5% intralipid; for emission maximum: in water
Protocol: All fluorescence measurements were performed using front-face illumination and detection, using the sample holder shown in FIG. 18. The incident light was redirected from the usual position using two mirrors. The position of the sample could be adjusted with a movable stage. The re-emergent light passed through one or more optical filters prior to reaching the destination.
The sample consisted of either a cuvette containing the intralipid, or a quartz slide covering the chicken muscle and skin (FIG. 19). Excitation at 600 nm was provided by the fundamental output of a rhodamine 6G dye laser. This dye laser was synchronously pumped by a mode-locked argon ion laser, and cavity dumped at 1.88 MHz.
For the present studies we used two fluorophores with ns decay times, Rh800 and IcG, and a long lifetime metal ligand complex. We refer to this long lifetime reference as the Ru complex (FIG. 1). All three fluorophores can be excited at 600 nm. In water Rh800 emits maximally near 706 nm, and IcG near 805 nm. […] The emission spectra of Rh800 and IcG in 0.5% intralipid is similar to those observed in water (FIG. 2).

[3] = Frequency-domain intensity decay (fluorescence lifetime) measurements; assay type: physicochemical; details: for decay time: Rh800 in 0.5% intralipid, Ru complex in PVA film
Protocol: Frequency domain intensity decay measurements were performed as described previously. Phase angles and modulation measurements at frequencies greater than 1.88 MHz were accomplished using the harmonic content of the picosecond pulses. The excitation was polarized vertically, and the emission detected without an emission polarizer. The re-emergent light was either observed directly, or through two cut-off filters (630 and 660 nm) to remove scattered light and/or attenuate the fluorophore emission relative to that of the long lived reference.
A long lifetime reference signal was provided by [Ru(bPY)2(dppz)](PF6)^2 in a polyvinyl alcohol (PVA) film, where bpy is 2,2′-bipyridine and dppz is dipyrido[3,2-a:2′,3′-cl]phenazine. Such metal-ligand complexes are known to display lifetimes from 100 ns to 13 (s. The intensity decay time of [Ru(bpy)2(dppz)](PF6)2 in the PVA film was near 800 ns (Table 1 as shown in FIG. 20).
The intensity decay data was analyzed in terms of the multi-exponential model [formula]
In this expression αi represents the pre-exponential factors associated with each lifetime τi. The fractional contribution of each decay time component to the steady state intensity is given by [formula]
The values of Σαi and Σfi are typically normalized to unity. The mean lifetime is given by [formula]
In the frequency-domain measurements the measured quantities are the phase shift of the emission […] and its modulation (m107) at the light modulation frequency ωi in radians/sec. The values of αi and τi are determined by non-linear least squares fitting and minimization of the goodness-of-fit parameter X^2R. [formula]
In this expression the subscript c refers to calculated values of φω and mω for assumed values of αi and τi and ν is the number of degrees of freedom. δω and δm represent the uncertainties in the measured values. In some cases we performed a global analysis of data measured at more than one fluorophore concentrations. In this case the sum in equation 3 extends over these multiple concentrations (k).
We examined the frequency-domain intensity decay of Rh800 and IcG in 0.5% intralipid. As the concentration of Rh800 increased the frequency response shifted to higher frequency (FIG. 5). […] In 0.5% intralipid the intensity decay of Rh800 becomes more complex. The data could be fit to a two decay time model. The individual decay times and the mean decay times decreased with increasing Rh800 concentrations (FIG. 6). Similar results are found for IcG, with the decay times and mean decay time decreasing with increasing IcG concentration (Table III, as shown in FIG. 22).

[4] = cited from earlier work

emission peak [2] [nm] | emission maximum [2] [nm] | intensity decay time ([3]; in water, no intralipid, single exponential) [ns] | Molecule | clearance from circulation [1] | decay time [3] [ns] | intensity decay time in PVA film ([3]; polyvinyl alcohol film) [ns] | fluorescence in water [4]
~820 | ~805 | – | CC1(C)C(/C=C/C=C/C=C/C=C2\N(CCCCS(=O)(=O)O)c3ccc4ccccc4c3C2(C)C)=[N+](CCCCS(=O)(=O)[O-])c2ccc3ccccc3c21 [IcG, indocyanine green] | rapidly cleared from circulation | – | – | –
~710 | ~706 | 0.686 | Rhodamine 800 [Rh800] | – | 1.62 | – | –
– | – | – | Ruthenium bis-2,2′-bipyridine dipyridophenazine [Ru complex] | – | 834 | ~800 | essentially non-fluorescent in water
